Laboratory results: the OligoGym collection
Oligonucleotides are written 5' to 3', each unit as a sugar letter and its base; * is a phosphorothioate linkage, no mark a phosphodiester; rarer units and linkages stand in square brackets, end groups in braces. Plain capitals give the bases only. Oligonucleotides are given in HELM: sugar(base)linkage, 5' to 3'; d 2'-deoxyribose, r ribose, m 2'-O-methylribose, p phosphate. ss, as = sense and antisense strand; d = 2'-deoxy (DNA); r = 2'-OH (RNA)
Note: test concentration or dose not given here.

Each substance was assayed against UBE2V1 (assay: reporter assay of Huesken 2005). Conditions: siRNA.
With “sense rArArArGrGrArGrUrArArArArGrUrCrCrCrUrCdTdT / antisense rGrArGrGrGrArCrUrUrUrUrArCrUrCrCrUrUrUdGdC” the normalised inhibition (eCFP-eYFP dual reporter) was 65.6%.
Work on “sense rArArArUrUrUrCrArCrUrGrCrArArArGrGrArGdTdT / antisense rCrUrCrCrUrUrUrGrCrArGrUrGrArArArUrUrUdTdC” yielded a normalised inhibition (eCFP-eYFP dual reporter) of 45.8%.
For “sense rArArCrCrGrArArUrArUrArCrArGrCrCrUrUrAdTdT / antisense rUrArArGrGrCrUrGrUrArUrArUrUrCrGrGrUrUdTdT”, the normalised inhibition (eCFP-eYFP dual reporter) was 96.1%.
For “sense rArArCrCrUrArGrArArArArUrUrUrCrArCrUrGdTdT / antisense rCrArGrUrGrArArArUrUrUrUrCrUrArGrGrUrUdCdA”, the normalised inhibition (eCFP-eYFP dual reporter) was 49.4%.
Substance “sense rArArGrArGrCrCrArUrArUrCrArGrUrGrCrUrAdTdT / antisense rUrArGrCrArCrUrGrArUrArUrGrGrCrUrCrUrUdGdG” has a normalised inhibition (eCFP-eYFP dual reporter) of 84.4%.
Work on “sense rArArUrArUrArCrArGrCrCrUrUrArArArArUrAdTdT / antisense rUrArUrUrUrUrArArGrGrCrUrGrUrArUrArUrUdCdG” yielded a normalised inhibition (eCFP-eYFP dual reporter) of 82.9%.
With “sense rArArUrGrGrArGrUrGrGrUrGrGrArCrCrCrArAdTdT / antisense rUrUrGrGrGrUrCrCrArCrCrArCrUrCrCrArUrUdAdG” the normalised inhibition (eCFP-eYFP dual reporter) was 83.5%.
For “sense rArArUrUrCrArUrArUrArGrCrArUrCrArArArGdTdT / antisense rCrUrUrUrGrArUrGrCrUrArUrArUrGrArArUrUdCdT”, the normalised inhibition (eCFP-eYFP dual reporter) was 70%.
Substance “sense rArCrCrUrArGrArArArArUrUrUrCrArCrUrGrCdTdT / antisense rGrCrArGrUrGrArArArUrUrUrUrCrUrArGrGrUdTdC” has a normalised inhibition (eCFP-eYFP dual reporter) of 36.5%.
With “sense rArGrArArArGrGrArGrUrArGrGrArGrArUrGrGdTdT / antisense rCrCrArUrCrUrCrCrUrArCrUrCrCrUrUrUrCrUdGdG” the normalised inhibition (eCFP-eYFP dual reporter) was 58.6%.
Work on “sense rArGrArArGrGrCrCrArGrArArArGrGrArGrUrAdTdT / antisense rUrArCrUrCrCrUrUrUrCrUrGrGrCrCrUrUrCrUdTdC” yielded a normalised inhibition (eCFP-eYFP dual reporter) of 86.1%.
Work on “sense rArGrArCrUrUrGrArArCrCrUrArGrArArArArUdTdT / antisense rArUrUrUrUrCrUrArGrGrUrUrCrArArGrUrCrUdTdC” yielded a normalised inhibition (eCFP-eYFP dual reporter) of 71.4%.
“sense rArGrArGrCrCrArUrArUrCrArGrUrGrCrUrArGdTdT / antisense rCrUrArGrCrArCrUrGrArUrArUrGrGrCrUrCrUdTdG” was tested, and the normalised inhibition (eCFP-eYFP dual reporter) was 90.3%.
Work on “sense rArGrArUrGrGrArCrArGrGrGrArUrGrArUrArAdTdT / antisense rUrUrArUrCrArUrCrCrCrUrGrUrCrCrArUrCrUdTdG” yielded a normalised inhibition (eCFP-eYFP dual reporter) of 90%.
With “sense rArGrCrUrGrGrGrGrUrCrUrArGrArArGrArUrGdTdT / antisense rCrArUrCrUrUrCrUrArGrArCrCrCrCrArGrCrUdAdA” the normalised inhibition (eCFP-eYFP dual reporter) was 73%.
In the case of “sense rArGrGrArArGrArCrUrUrGrArArCrCrUrArGrAdTdT / antisense rUrCrUrArGrGrUrUrCrArArGrUrCrUrUrCrCrUdTdC”, the normalised inhibition (eCFP-eYFP dual reporter) is reported as 78%.

What follows are substances tested against SOST (assay: reporter assay of Huesken 2005). Conditions: siRNA.
Work on “RNA1{r(G)p.r(G)p.r(U)p.r(G)p.r(A)p.r(G)p.r(G)p.r(C)p.r(G)p.r(C)p.r(C)p.r(G)p.r(C)p.r(G)p.r(C)p.r(G)p.r(C)p.r(G)p.r(C)p.d(T)p.d(T)}|RNA2{r(G)p.r(C)p.r(G)p.r(C)p.r(G)p.r(C)p.r(G)p.r(C)p.r(G)p.r(G)p.r(C)p.r(G)p.r(C)p.r(C)p.r(U)p.r(C)p.r(A)p.r(C)p.r(C)p.d(A)p.d(C)}$$$RNA1{StrandType:ss}|RNA2{StrandType:as}$” yielded a normalised inhibition (eCFP-eYFP dual reporter) of 26%.
“RNA1{r(G)p.r(U)p.r(A)p.r(G)p.r(U)p.r(G)p.r(G)p.r(A)p.r(G)p.r(G)p.r(G)p.r(C)p.r(C)p.r(A)p.r(G)p.r(G)p.r(G)p.r(G)p.r(U)p.d(T)p.d(T)}|RNA2{r(A)p.r(C)p.r(C)p.r(C)p.r(C)p.r(U)p.r(G)p.r(G)p.r(C)p.r(C)p.r(C)p.r(U)p.r(C)p.r(C)p.r(A)p.r(C)p.r(U)p.r(A)p.r(C)p.d(A)p.d(C)}$$$RNA1{StrandType:ss}|RNA2{StrandType:as}$” was tested, and the normalised inhibition (eCFP-eYFP dual reporter) was 63.5%.
“RNA1{r(G)p.r(U)p.r(G)p.r(C)p.r(C)p.r(G)p.r(C)p.r(A)p.r(G)p.r(C)p.r(G)p.r(C)p.r(C)p.r(A)p.r(A)p.r(G)p.r(C)p.r(C)p.r(G)p.d(T)p.d(T)}|RNA2{r(C)p.r(G)p.r(G)p.r(C)p.r(U)p.r(U)p.r(G)p.r(G)p.r(C)p.r(G)p.r(C)p.r(U)p.r(G)p.r(C)p.r(G)p.r(G)p.r(C)p.r(A)p.r(C)p.d(G)p.d(G)}$$$RNA1{StrandType:ss}|RNA2{StrandType:as}$” was tested, and the normalised inhibition (eCFP-eYFP dual reporter) was 49.6%.
In the case of “RNA1{r(G)p.r(U)p.r(G)p.r(G)p.r(A)p.r(G)p.r(G)p.r(G)p.r(C)p.r(C)p.r(A)p.r(G)p.r(G)p.r(G)p.r(G)p.r(U)p.r(G)p.r(G)p.r(C)p.d(T)p.d(T)}|RNA2{r(G)p.r(C)p.r(C)p.r(A)p.r(C)p.r(C)p.r(C)p.r(C)p.r(U)p.r(G)p.r(G)p.r(C)p.r(C)p.r(C)p.r(U)p.r(C)p.r(C)p.r(A)p.r(C)p.d(T)p.d(A)}$$$RNA1{StrandType:ss}|RNA2{StrandType:as}$”, the normalised inhibition (eCFP-eYFP dual reporter) is reported as 52.8%.
In the case of “RNA1{r(G)p.r(U)p.r(G)p.r(G)p.r(U)p.r(G)p.r(A)p.r(G)p.r(G)p.r(C)p.r(G)p.r(C)p.r(C)p.r(G)p.r(C)p.r(G)p.r(C)p.r(G)p.r(C)p.d(T)p.d(T)}|RNA2{r(G)p.r(C)p.r(G)p.r(C)p.r(G)p.r(C)p.r(G)p.r(G)p.r(C)p.r(G)p.r(C)p.r(C)p.r(U)p.r(C)p.r(A)p.r(C)p.r(C)p.r(A)p.r(C)p.d(C)p.d(G)}$$$RNA1{StrandType:ss}|RNA2{StrandType:as}$”, the normalised inhibition (eCFP-eYFP dual reporter) is reported as 65.2%.
In the case of “RNA1{r(G)p.r(U)p.r(G)p.r(U)p.r(C)p.r(C)p.r(C)p.r(G)p.r(G)p.r(U)p.r(G)p.r(G)p.r(U)p.r(G)p.r(A)p.r(G)p.r(G)p.r(C)p.r(G)p.d(T)p.d(T)}|RNA2{r(C)p.r(G)p.r(C)p.r(C)p.r(U)p.r(C)p.r(A)p.r(C)p.r(C)p.r(A)p.r(C)p.r(C)p.r(G)p.r(G)p.r(G)p.r(A)p.r(C)p.r(A)p.r(C)p.d(A)p.d(G)}$$$RNA1{StrandType:ss}|RNA2{StrandType:as}$”, the normalised inhibition (eCFP-eYFP dual reporter) is reported as 62.9%.
“RNA1{r(U)p.r(A)p.r(G)p.r(U)p.r(G)p.r(G)p.r(A)p.r(G)p.r(G)p.r(G)p.r(C)p.r(C)p.r(A)p.r(G)p.r(G)p.r(G)p.r(G)p.r(U)p.r(G)p.d(T)p.d(T)}|RNA2{r(C)p.r(A)p.r(C)p.r(C)p.r(C)p.r(C)p.r(U)p.r(G)p.r(G)p.r(C)p.r(C)p.r(C)p.r(U)p.r(C)p.r(C)p.r(A)p.r(C)p.r(U)p.r(A)p.d(C)p.d(A)}$$$RNA1{StrandType:ss}|RNA2{StrandType:as}$” was tested, and the normalised inhibition (eCFP-eYFP dual reporter) was 72%.
In the case of “RNA1{r(U)p.r(C)p.r(A)p.r(A)p.r(G)p.r(A)p.r(A)p.r(U)p.r(G)p.r(A)p.r(U)p.r(G)p.r(C)p.r(C)p.r(A)p.r(C)p.r(G)p.r(G)p.r(A)p.d(T)p.d(T)}|RNA2{r(U)p.r(C)p.r(C)p.r(G)p.r(U)p.r(G)p.r(G)p.r(C)p.r(A)p.r(U)p.r(C)p.r(A)p.r(U)p.r(U)p.r(C)p.r(U)p.r(U)p.r(G)p.r(A)p.d(A)p.d(C)}$$$RNA1{StrandType:ss}|RNA2{StrandType:as}$”, the normalised inhibition (eCFP-eYFP dual reporter) is reported as 68.7%.
“RNA1{r(U)p.r(C)p.r(A)p.r(A)p.r(G)p.r(G)p.r(A)p.r(C)p.r(U)p.r(U)p.r(C)p.r(G)p.r(G)p.r(G)p.r(A)p.r(C)p.r(C)p.r(G)p.r(A)p.d(T)p.d(T)}|RNA2{r(U)p.r(C)p.r(G)p.r(G)p.r(U)p.r(C)p.r(C)p.r(C)p.r(G)p.r(A)p.r(A)p.r(G)p.r(U)p.r(C)p.r(C)p.r(U)p.r(U)p.r(G)p.r(A)p.d(G)p.d(C)}$$$RNA1{StrandType:ss}|RNA2{StrandType:as}$” was tested, and the normalised inhibition (eCFP-eYFP dual reporter) was 61.3%.
“RNA1{r(U)p.r(C)p.r(G)p.r(G)p.r(A)p.r(G)p.r(C)p.r(U)p.r(C)p.r(A)p.r(A)p.r(G)p.r(G)p.r(A)p.r(C)p.r(U)p.r(U)p.r(C)p.r(G)p.d(T)p.d(T)}|RNA2{r(C)p.r(G)p.r(A)p.r(A)p.r(G)p.r(U)p.r(C)p.r(C)p.r(U)p.r(U)p.r(G)p.r(A)p.r(G)p.r(C)p.r(U)p.r(C)p.r(C)p.r(G)p.r(A)p.d(C)p.d(T)}$$$RNA1{StrandType:ss}|RNA2{StrandType:as}$” gave a normalised inhibition (eCFP-eYFP dual reporter) of 61.8%.
In the case of “RNA1{r(U)p.r(C)p.r(G)p.r(G)p.r(C)p.r(C)p.r(G)p.r(C)p.r(G)p.r(G)p.r(C)p.r(A)p.r(A)p.r(G)p.r(U)p.r(G)p.r(G)p.r(U)p.r(G)p.d(T)p.d(T)}|RNA2{r(C)p.r(A)p.r(C)p.r(C)p.r(A)p.r(C)p.r(U)p.r(U)p.r(G)p.r(C)p.r(C)p.r(G)p.r(C)p.r(G)p.r(G)p.r(C)p.r(C)p.r(G)p.r(A)p.d(T)p.d(G)}$$$RNA1{StrandType:ss}|RNA2{StrandType:as}$”, the normalised inhibition (eCFP-eYFP dual reporter) is reported as 66%.
“RNA1{r(U)p.r(G)p.r(C)p.r(A)p.r(A)p.r(G)p.r(C)p.r(G)p.r(C)p.r(C)p.r(U)p.r(C)p.r(A)p.r(C)p.r(C)p.r(C)p.r(G)p.r(C)p.r(U)p.d(T)p.d(T)}|RNA2{r(A)p.r(G)p.r(C)p.r(G)p.r(G)p.r(G)p.r(U)p.r(G)p.r(A)p.r(G)p.r(G)p.r(C)p.r(G)p.r(C)p.r(U)p.r(U)p.r(G)p.r(C)p.r(A)p.d(C)p.d(T)}$$$RNA1{StrandType:ss}|RNA2{StrandType:as}$” was tested, and the normalised inhibition (eCFP-eYFP dual reporter) was 66.2%.
Substance “RNA1{r(U)p.r(G)p.r(C)p.r(G)p.r(G)p.r(C)p.r(C)p.r(C)p.r(G)p.r(G)p.r(C)p.r(G)p.r(C)p.r(G)p.r(C)p.r(C)p.r(U)p.r(G)p.r(C)p.d(T)p.d(T)}|RNA2{r(G)p.r(C)p.r(A)p.r(G)p.r(G)p.r(C)p.r(G)p.r(C)p.r(G)p.r(C)p.r(C)p.r(G)p.r(G)p.r(G)p.r(C)p.r(C)p.r(G)p.r(C)p.r(A)p.d(C)p.d(T)}$$$RNA1{StrandType:ss}|RNA2{StrandType:as}$” has a normalised inhibition (eCFP-eYFP dual reporter) of 52.1%.
For “RNA1{r(U)p.r(U)p.r(C)p.r(A)p.r(C)p.r(C)p.r(C)p.r(G)p.r(C)p.r(U)p.r(A)p.r(C)p.r(G)p.r(U)p.r(G)p.r(A)p.r(C)p.r(C)p.r(G)p.d(T)p.d(T)}|RNA2{r(C)p.r(G)p.r(G)p.r(U)p.r(C)p.r(A)p.r(C)p.r(G)p.r(U)p.r(A)p.r(G)p.r(C)p.r(G)p.r(G)p.r(G)p.r(U)p.r(G)p.r(A)p.r(A)p.d(G)p.d(T)}$$$RNA1{StrandType:ss}|RNA2{StrandType:as}$”, the normalised inhibition (eCFP-eYFP dual reporter) was 57.5%.
